Source: patent US6720341B2, “Preventives/remedies for kidney diseases” (Mitsubishi Pharma Corporation, priority 2000, dated 2004)

System: renal interstitial fibrosis model mice
Test: Action in renal interstitial fibrosis model mice due to unilateral ureteral ligation
Format: in vivo
Procedure: Unilateral ureteral ligation mice were prepared according to the reported method (Kidney Int. 54, 110-119, (1998)). Male BL6/C3H F1 mice (6-week-old, body weight 25 g-30 g) were anesthetized with pentobarbital and subjected to median incision. Thereafter, left ureter was detached and ligated at two points with silk thread. Two models were prepared, and 10 mg/kg of Y-27632 was orally administered (administration with drinking water) to one group for consecutive days from 2 days prior to the operation. Ten days postoperation, the kidney on the ureter ligation side was removed, fixed with 4% paraformaldehyde and prepared into specimen, for staining, which were subjected to Masson trichrome staining. The level of renal interstitial fibrosis was calculated by image analysis of the area ratio (interstitium cortex area ratio:%) of the portion stained blue (fibrosis) relative to the entire sight. (Results)

C[C@@H](N)[C@H]1CC[C@H](C(=O)Nc2ccncc2)CC1 [Compound Y-27632, (+)-trans-4-(1-aminoethyl)-1-(4-pyridylcarbamoyl)cyclohexane 2HCl.1H2O]
level of renal interstitial fibrosis (10 mg/kg orally, against non-administration group, p < 0.01 (t-test)): significantly suppressed | portion stained blue (fibrosis) in Masson trichrome stained kidney specimen (FIG. 1B, Y-27632 administration group, 10 mg/kg orally, ten days postoperation): scarcely detected | Area ratio of interstitium cortex (Fibrosis): % (average value ± SD) (unilateral ureteral ligation mice, 10 mg/kg orally (with drinking water) from 2 days prior to operation, kidney removed ten days postoperation, Masson trichrome staining, image analysis, n = 4): 7.31 ± 3.11 %
